The source of these data is patent publication US5416118A, “Bicyclic amides as inhibitors of acyl-coenzyme A: cholesterol acyl transferase” (Schering Corporation, priority 1993, dated 1995).

The test system of one assay is cholesteryl esters. Put plainly: In Vivo Assay of Hypolipidemic Agents Using the Hyperlipidemic Hamster. The following applies: Mesocricetus auratus, po, 168 h, oral gavage once daily, 7 days, versus control, read-out: % Reduction in cholesteryl esters; for change in vivo at 50 mg/kg: 50 mpk. The method, then:
In Vivo Assay of Hypolipidemic Agents Using the Hyperlipidemic Hamster
Hamsters are separated into groups of six and given a control cholesterol diet (Pudna Chow #5001 containing 0.5% cholesterol) for seven days. Diet consumption is monitored to determine dietary cholesterol exposure in the face of test compounds. The animals are dosed with the test compound once daily beginning with the initiation of diet. Dosing is by oral gavage of 0.2 mL of corn oil alone (control group) or solution (or suspension) of test compound in corn oil. All animals moribund or in poor physical condition are euthanized. After seven days, the animals are anesthetized by […] of ketamine and sacrificed by decapitation. Blood is collected into vacutainer tubes containing EDTA for plasma lipid analysis and the liver excised for tissue lipid analysis. Data is reported as percent reduction of lipid versus control.
(§1) Using the assay methods described above, the compounds of Examples 1-9 were tested for in vitro ACAT inhibitory activity and for the ability to lower the level of cholesteryl esters in vivo.

In the next assay the test system is ACAT. Put plainly: ACAT Assay (in vitro). The assay is classed as biochemical. The conditions noted are these: dose = 10 μM; rat liver microsomes. As to the method: This assay measures the activity of ACAT by measuring the ACAT-mediated transfer of tritiated oleic acid from acyl-CoA to cholesterol to give labelled cholesterol oleate. Rat liver microsomes are used as the source of ACAT. Assays are performed in round bottom microtiterplates using a total incubation volume of 50 μL. Each incubation well receives 10 μL assay buffer (0.5M KHPO4, 10 μM dithiothreitol, pH 7.4), 7.5 μL of 40 mg/mL BSA (Bovine Serum Albumin) and 12.5 μg of microsomal protein. The test compound (in sufficient amount to bring the final concentration to from 0.1 to 25 μM), reference compound, or vehicle control is added and the final volume brought to 47 μL. The microtiterplate is then floated on the surface of a 37° C. water bath for fifteen minutes. Incubations are started by the addition of 3 μL ^3 H-acyl CoA (1 μCi/well, final concentration of 10 μM acyl CoA). The plate is then returned to the water bath for 15 minutes. The incubations are then terminated by application of 15 μL from each incubation to individual lanes on a thin layer plate (Silica Gel GF 20×20 cm). Standards are applied to several lanes so that the cholesterol ester band can be identified. After drying, the plates are eluted with 90:10:1 petroleum ether:ether:HOAc. The standards are visualized via iodine vapor, and the regions corresponding to cholesterol ester are scraped into 7 mL scintillation vials. 4 mL of scintillant are added to each vial, and the radioactivity quantified. Background count is determined by the boiled controls. Full activity is determined by activity in the presence of vehicle. The percent inhibition is calculated by subtracting the background from both control and test samples, and the test value is calculated as a percentage of the control. For IC50 determinations, the inhibition is plotted against drug doses on a log scale and the concentration at which 50% inhibition is obtained is determined.
as §1
For orientation: Liver microsomes are a subcellular fraction often used to study metabolism.

The structures appear in SMILES notation.

Regarding `COc1ccc([C@@H]2CCc3ccccc3[C@@H]2NC(=O)C(c2ccccc2)c2ccccc2)cc1` (relative stereo) [Example 1, cis-N-[-2-(4'-methoxyphenyl)-1,2,3,4-tetrahydronaphthalen-1-yl]-α-phenylbenzeneacetamide], the change in vivo at 50 mg/kg with cholesteryl esters came to 0%.

Turning to `COc1ccccc1[C@H]1CCc2ccccc2[C@@H]1NC(=O)C(c1ccccc1)c1ccccc1` (relative stereo) [Example 1B], in the assay with cholesteryl esters, the change in vivo at 50 mg/kg was determined as 21%.

As for `COc1cccc([C@H]2CCc3ccccc3[C@@H]2NC(=O)C(c2ccccc2)c2ccccc2)c1` (relative stereo) [Example 1D], the change in vivo at 50 mg/kg in the assay on cholesteryl esters is 0%.

Consider `O=C(N[C@H]1c2ccccc2OC[C@H]1c1ccccc1)C(c1ccccc1)c1ccccc1` (relative stereo) [Example 1E], for which, in the assay on ACAT, the “ACAT % Inhibition” value is 40%. Further, the change in vivo at 50 mg/kg in the assay on cholesteryl esters was 0%.

For `CCCCCCCCCC(C)(C)C(=O)N[C@H]1c2ccccc2CC[C@@H]1c1ccc(OC)cc1` (relative stereo) [Example 1F], the “ACAT % Inhibition” value in the assay with ACAT was found to be 36%. In addition, the change in vivo at 50 mg/kg with cholesteryl esters came out at 0%.

With `COc1ccc([C@H]2CCc3ccccc3[C@@H]2NC(=O)C(c2ccccc2)c2ccccc2)cc1` (relative stereo) [Example 1G], the change in vivo at 50 mg/kg in the assay with cholesteryl esters came to 0%.

In the case of `COc1ccc([C@@H]2CCCc3ccccc3[C@@H]2NC(=O)C(c2ccccc2)c2ccccc2)cc1` (relative stereo) [Example 1H], in the assay with ACAT, the “ACAT % Inhibition” value was 84%. Moreover, the change in vivo at 50 mg/kg with cholesteryl esters stood at 0%.

As for `COc1ccc([C@H]2CCCc3ccccc3[C@@H]2NC(=O)C(c2ccccc2)c2ccccc2)cc1` (relative stereo) [Example 1I], in the assay on ACAT, the “ACAT % Inhibition” value was 63%.

Turning to `O=C(N[C@H]1c2ccccc2CC[C@@H]1c1ccncc1)C(c1ccccc1)c1ccccc1` (relative stereo) [Example 1J], the change in vivo at 50 mg/kg in the assay on cholesteryl esters was -39%.

With `O=C(N[C@H]1c2ccccc2OC[C@@H]1c1ccccc1)C(c1ccccc1)c1ccccc1` (relative stereo) [Example 1M], the “ACAT % Inhibition” value with ACAT came to 85%. Besides, the change in vivo at 50 mg/kg in the assay on cholesteryl esters was found to be 0%.

On to `COc1ccc([C@H]2CCc3ccc(OC)cc3[C@@H]2NC(=O)C(c2ccccc2)c2ccccc2)cc1` (relative stereo) [Example 1R], for which the change in vivo at 50 mg/kg with cholesteryl esters was found to be 0%.

Consider `COc1ccc([C@@H]2Cc3ccccc3[C@@H]2NC(=O)C(c2ccccc2)c2ccccc2)cc1` (relative stereo) [Example 2, cis-N-[2-(4'-methoxyphenyl)indanyl]-α-phenylbenzeneacetamide], for which the “ACAT % Inhibition” value with ACAT was determined as 96%. For the same molecule, the change in vivo at 50 mg/kg in the assay on cholesteryl esters is -17%.

Take `COc1cccc([C@@H]2Cc3ccccc3[C@@H]2NC(=O)C(c2ccccc2)c2ccccc2)c1` (relative stereo) [Example 2A]: the “ACAT % Inhibition” value with ACAT is listed as 99%. Also, the change in vivo at 50 mg/kg in the assay on cholesteryl esters was found to be 0%.

In the case of `COc1cccc([C@H]2Cc3ccccc3[C@@H]2NC(=O)C(c2ccccc2)c2ccccc2)c1` (relative stereo) [Example 2B], the “ACAT % Inhibition” value in the assay with ACAT is recorded as 94%.

As to `O=C(N[C@H]1c2ccccc2C[C@H]1c1cccc([N+](=O)[O-])c1)C(c1ccccc1)c1ccccc1` (relative stereo) [Example 2C], the “ACAT % Inhibition” value with ACAT stood at 99%. Besides, the change in vivo at 50 mg/kg in the assay with cholesteryl esters came to 0%.

Turning to `O=C(N[C@H]1c2ccccc2C[C@@H]1c1cccc([N+](=O)[O-])c1)C(c1ccccc1)c1ccccc1` (relative stereo) [Example 2D], the “ACAT % Inhibition” value in the assay with ACAT is reported as 90%.

On to `COc1ccc([C@H]2Cc3ccccc3[C@@H]2NC(=O)C(c2ccccc2)c2ccccc2)cc1` (relative stereo) [Example 2F], for which the “ACAT % Inhibition” value with ACAT is on record as 19%. Also, the change in vivo at 50 mg/kg in the assay with cholesteryl esters is 0%.

For the molecule `O=C(N[C@H]1c2ccccc2C[C@H]1c1ccc([N+](=O)[O-])cc1)C(c1ccccc1)c1ccccc1` (relative stereo) [Example 2I], the “ACAT % Inhibition” value in the assay with ACAT amounted to 51%.

For `O=C(N[C@H]1c2ccccc2C[C@@H]1c1ccc([N+](=O)[O-])cc1)C(c1ccccc1)c1ccccc1` (relative stereo) [Example 2J], in the assay on ACAT, the “ACAT % Inhibition” value was -12%.

Turning to `CCCCCCCC/C=C\CCCCCCCC(=O)N[C@H]1c2ccccc2CC[C@H]1c1ccccc1` (relative stereo) [Example 2L], the “ACAT % Inhibition” value in the assay with ACAT stood at 66%.

As for `CCCCCCCC/C=C\CCCCCCCC(=O)N[C@H]1c2ccccc2OC[C@@H]1c1ccccc1` (relative stereo) [Example 2O], the “ACAT % Inhibition” value in the assay on ACAT came to 87%.

`Nc1ccc([C@H]2CCc3ccccc3[C@@H]2NC(=O)C(c2ccccc2)c2ccccc2)cc1` (relative stereo) [Example 2P]: in the assay with cholesteryl esters (25 mpk), the change in vivo at 25 mg/kg was -15%.

For the molecule `COc1ccc2c(c1)[C@H](NC(=O)C(c1ccccc1)c1ccccc1)[C@H](c1ccccc1)C2` (relative stereo) [Example 2Q], the “ACAT % Inhibition” value with ACAT is 16%.

Consider `COc1ccc2c(c1)[C@H](NC(=O)C(c1ccccc1)c1ccccc1)[C@@H](c1ccccc1)C2` (relative stereo) [Example 2T], for which, in the assay on ACAT, the “ACAT % Inhibition” value is given as 15%.

As for `O=C(N[C@@H]1c2ccccc2CC[C@H]1c1ccccc1O)C(c1ccccc1)c1ccccc1` (relative stereo) [Example 3A], the change in vivo at 50 mg/kg in the assay with cholesteryl esters is 0%.

In the case of `O=C(N[C@@H]1c2c(O)cccc2CC[C@H]1c1ccccc1)C(c1ccccc1)c1ccccc1` (relative stereo) [Example 3CC], in the assay with cholesteryl esters, the change in vivo at 50 mg/kg was -20%.

On to `O=C(N[C@@H]1c2ccccc2CCC[C@H]1c1ccc(O)cc1)C(c1ccccc1)c1ccccc1` (relative stereo) [Example 3J], for which, in the assay with cholesteryl esters, the change in vivo at 50 mg/kg is -61%.

Take `O=C(N[C@@H]1c2ccc(O)cc2C[C@H]1c1ccccc1)C(c1ccccc1)c1ccccc1` (relative stereo) [Example 3L]: the “ACAT % Inhibition” value with ACAT amounted to 93%.

As to `O=C(N[C@@H]1c2ccccc2CCC[C@@H]1c1ccc(O)cc1)C(c1ccccc1)c1ccccc1` (relative stereo) [Example 3R], the change in vivo at 50 mg/kg in the assay on cholesteryl esters was found to be 0%.

`O=C(N[C@@H]1c2cccc(O)c2CC[C@H]1c1ccccc1)C(c1ccccc1)c1ccccc1` (relative stereo) [Example 3S]: the change in vivo at 50 mg/kg in the assay on cholesteryl esters turned out to be 0%.

With `O=C(N[C@@H]1c2cccc(O)c2CC[C@@H]1c1ccccc1)C(c1ccccc1)c1ccccc1` (relative stereo) [Example 3T], in the assay on cholesteryl esters, the change in vivo at 50 mg/kg was determined as 0%.

On to `O=C(N[C@@H]1c2cc(O)ccc2CC[C@H]1c1ccc(O)cc1)C(c1ccccc1)c1ccccc1` (relative stereo) [Example 3U], for which, in the assay on cholesteryl esters (10 mpk), the change in vivo at 10 mg/kg was -60%. The change in vivo at 30 mg/kg in the assay with cholesteryl esters (30 mpk) was -86%. Also, the change in vivo at 50 mg/kg in the assay with cholesteryl esters is -97%.

Consider `O=C(N[C@@H]1c2cc(O)ccc2CC[C@@H]1c1ccc(O)cc1)C(c1ccccc1)c1ccccc1` (relative stereo) [Example 3V], for which the change in vivo at 50 mg/kg in the assay with cholesteryl esters came to 0%.

Consider `O=C(N[C@@H]1c2c(O)cccc2C[C@@H]1c1ccccc1)C(c1ccccc1)c1ccccc1` (relative stereo) [Example 3X], for which the “ACAT % Inhibition” value with ACAT is reported as 97%.

In the case of `Nc1ccc([C@@H]2Cc3ccccc3[C@H]2NC(=O)C(c2ccccc2)c2ccccc2)cc1` (relative stereo) [Example 5, trans-N-[2-(4'-aminophenyl)indanyl]-α-phenylbenzeneacetamide], in the assay on ACAT, the “ACAT % Inhibition” value was 94%.

Regarding `O=C(N[C@@H]1c2ccccc2C[C@@H]1c1ccc(O)cc1)C(c1ccccc1)c1ccccc1` (single isomer, unassigned) [Example 3BB], the “ACAT % Inhibition” value in the assay with ACAT is recorded as less than 0%.

For the molecule `O=C(N[C@@H]1c2cc(O)ccc2CC[C@H]1c1ccccc1)C(c1ccccc1)c1ccccc1` (single isomer, unassigned) [Example 3Y], the “ACAT % Inhibition” value with ACAT stood at 83%.

As to `O=C(N[C@@H]1c2cc(O)ccc2CC[C@H]1c1ccccc1)C(c1ccccc1)c1ccccc1` (single isomer, unassigned) [Example 3Z], the “ACAT % Inhibition” value in the assay on ACAT turned out to be 92%.
